The text below walks through data of patent US20230220035A1 (DONG-A ST CO., LTD., published 2023).

pEC50: −log10 of the molar value.

For data set [1], the target named is GLP-1 receptor (Homo sapiens, UniProt P43220). Description: Human GLP-1 receptor activation assay (CRE-luciferase). The format is cell-based. Conditions: for Emax: CHO-K1, 6 h, read-out: GLP-1 receptor Maximum activation (% vs GLP-1); for pEC50: CHO-K1 cells transiently transfected, luciferase, 6 hours, 0.1% BSA. Details: host or cells: CHO-K1. As to the method:
(§1) Then, the resulting increased luciferase activity was evaluated as a measurement of the effect on each receptor activation.
(§2) For positive control, endogenous ligand GLP-1 or glucagon was used for respective evaluation. The above-mentioned acylated oxyntomodulin peptide analogs of Comparative Example 8-12 were synthesized and used as comparative examples.
(§3) After 3 hours of transfection, medium was exchanged to Alpha Minimal Essential Medium (α-MEM) comprising 10% fetal bovine serum (FBS). Next day, the medium was exchanged to α-MEM comprising the acylated oxyntomodulin peptide analog of the present invention and 0.1% bovine serum albumin (BSA). After 6 hours, dual luciferase assay reagent (Promega) was added in the same amount as the medium in which the cells were submerged, and firefly luciferase and Renilla luciferase activities were successively measured. Firefly luciferase activity values were corrected against Renilla luciferase activity to yield transfection efficiency.

In data set [2] the target is glucagon receptor (Homo sapiens, UniProt P47871). Description: Human glucagon receptor activation assay (CRE-luciferase). Type of data set: cell-based. Details: host or cells: CHO-K1. Conditions: CHO-K1 cells transiently transfected; for Emax: 6 h, relative to glucagon, read-out: GCG receptor Maximum activation (% vs GCG); for pEC50: 6 hours, 0.1% BSA, read-out: GCG receptor EC50. As for the experimental part:
as §1, §2, §3

A short description of data set [3]: in vivo. Conditions: ICR, mouse, sc.
Text: ICR mice were used to evaluate the pharmacokinetics in mice of the acylated oxyntomodulin peptide analogs according to the present invention.
Data set [4] can be described thus: in vivo. Conditions: cynomolgus monkey, sc.
Text: Cynomolgus monkeys were used to evaluate the pharmacokinetics in monkeys of the acylated oxyntomodulin peptide analogs according to the present invention.
For data set [5], the system named is overweight and obese patients. Conditions: subcutaneously for 4 weeks, 3 times per day; cited from earlier work.

glucagon receptor, sequence (P47871 26-477): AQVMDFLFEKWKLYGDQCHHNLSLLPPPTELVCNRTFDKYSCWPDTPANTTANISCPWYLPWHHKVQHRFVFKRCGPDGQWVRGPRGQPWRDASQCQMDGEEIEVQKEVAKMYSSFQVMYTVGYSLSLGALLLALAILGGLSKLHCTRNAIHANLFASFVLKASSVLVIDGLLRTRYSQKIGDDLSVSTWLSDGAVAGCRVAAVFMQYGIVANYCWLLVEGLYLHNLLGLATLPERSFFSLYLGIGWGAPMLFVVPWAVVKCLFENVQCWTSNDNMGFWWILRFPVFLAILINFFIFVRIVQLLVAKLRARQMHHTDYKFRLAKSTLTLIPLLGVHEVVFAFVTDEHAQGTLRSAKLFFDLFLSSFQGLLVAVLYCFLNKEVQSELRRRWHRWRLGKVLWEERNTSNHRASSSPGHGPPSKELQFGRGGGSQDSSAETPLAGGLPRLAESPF
GLP-1 receptor, sequence (P43220 24-463): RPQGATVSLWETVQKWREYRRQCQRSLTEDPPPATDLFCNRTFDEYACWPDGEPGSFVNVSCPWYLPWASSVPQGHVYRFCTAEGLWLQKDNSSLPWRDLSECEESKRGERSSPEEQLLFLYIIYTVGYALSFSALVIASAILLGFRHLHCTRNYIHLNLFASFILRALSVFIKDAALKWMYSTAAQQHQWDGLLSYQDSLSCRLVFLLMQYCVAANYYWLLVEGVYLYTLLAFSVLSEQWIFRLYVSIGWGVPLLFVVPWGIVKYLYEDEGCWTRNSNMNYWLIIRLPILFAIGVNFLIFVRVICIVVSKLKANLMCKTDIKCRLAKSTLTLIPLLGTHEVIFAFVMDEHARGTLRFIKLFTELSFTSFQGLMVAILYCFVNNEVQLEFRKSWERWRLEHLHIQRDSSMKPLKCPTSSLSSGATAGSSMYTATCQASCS

Usually pEC50 stands for the EC50 on a negative log10 scale, so that one unit is a factor of ten. The half-life is how long it takes for the measured level to halve. Consider `CCCCCCCCCCCCCCCCCC(=O)N[C@@H](CCC(=O)NCCOCCOCC(=O)NCCOCCOCC(=O)NCCCC[C@H](NC(=O)[C@H](CC(=O)O)NC(=O)[C@H](CO)NC(=O)[C@@H](NC(=O)[C@H](Cc1ccccc1)NC(=O)[C@@H](NC(=O)CNC(=O)[C@H](CCC(N)=O)NC(=O)C(C)(C)NC(=O)[C@@H](N)Cc1c[nH]cn1)[C@@H](C)O)[C@@H](C)O)C(=O)N[C@@H](CO)C(=O)N[C@@H](CCCCN)C(=O)N[C@@H](Cc1ccc(O)cc1)C(=O)N[C@@H](CC(C)C)C(=O)N[C@@H](CC(=O)O)C(=O)NC(C)(C)C(=O)N[C@@H](CCCNC(=N)N)C(=O)N[C@@H](CCCNC(=N)N)C(=O)N[C@@H](C)C(=O)N[C@@H](CCC(N)=O)C(=O)N[C@@H](CC(=O)O)C(=O)N[C@@H](Cc1ccccc1)C(=O)N[C@H](C(=O)N[C@@H](CCC(N)=O)C(=O)N[C@@H](Cc1c[nH]c2ccccc12)C(=O)N[C@@H](CC(C)C)C(=O)N[C@@H](CCSC)C(=O)N[C@@H](CC(N)=O)C(=O)N[C@H](C(=O)N[C@@H](CCCCN)C(=O)N[C@@H](CCC(=O)O)C(=O)N[C@@H](Cc1ccc(O)cc1)C(=O)N[C@@H](CCC(=O)O)C(=O)N[C@@H](CCCCNC(=O)CCCCCCCCCCCCC(=O)O)C(=O)N[C@@H](CCC(=O)O)C(=O)N[C@@H](Cc1ccc(O)cc1)C(=O)N[C@@H](CCC(=O)O)C(=O)O)[C@@H](C)O)C(C)C)C(=O)O` [Compound 1], for which the Emax in data set [1] was 102%; in data set [2] it was 107%. Moreover, the negative-log EC50 (pEC50) in data set [1] and in data set [2] was above 10.00 each time. Further, the half-life was above 6 h in data set [3] (Mouse PK (S.C. half-life)), above 6 h in data set [3] (half-life in mice), 12 to 18 h in data set [4] (Monkey PK (S.C. half-life)) and above 12 h in data set [4] (monkey PK half-life).

For the compound `CCCCCCCCCCCCCCCCCC(=O)N[C@@H](CCC(=O)NCCOCCOCC(=O)NCCOCCOCC(=O)NCCCC[C@H](NC(=O)[C@H](CC(=O)O)NC(=O)[C@H](CO)NC(=O)[C@@H](NC(=O)[C@H](Cc1ccccc1)NC(=O)[C@@H](NC(=O)CNC(=O)[C@H](CCC(N)=O)NC(=O)C(C)(C)NC(=O)[C@@H](N)Cc1c[nH]cn1)[C@@H](C)O)[C@@H](C)O)C(=O)N[C@@H](CO)C(=O)N[C@@H](CCCCN)C(=O)N[C@@H](Cc1ccc(O)cc1)C(=O)N[C@@H](CC(C)C)C(=O)N[C@@H](CC(=O)O)C(=O)NC(C)(C)C(=O)N[C@@H](CCCNC(=N)N)C(=O)N[C@@H](CCCNC(=N)N)C(=O)N[C@@H](C)C(=O)N[C@@H](CCC(N)=O)C(=O)N[C@@H](CC(=O)O)C(=O)N[C@@H](Cc1ccccc1)C(=O)N[C@H](C(=O)N[C@@H](CCC(N)=O)C(=O)N[C@@H](Cc1c[nH]c2ccccc12)C(=O)N[C@@H](CC(C)C)C(=O)N[C@@H](CCSC)C(=O)N[C@@H](CC(N)=O)C(=O)N[C@H](C(=O)N[C@@H](CCCCN)C(=O)N[C@@H](CCC(=O)O)C(=O)N[C@@H](Cc1ccc(O)cc1)C(=O)N[C@@H](CCC(=O)O)C(=O)N[C@@H](CCCCNC(=O)CCCCCCCCCCCCCCC(=O)O)C(=O)N[C@@H](CCC(=O)O)C(=O)N[C@@H](Cc1ccc(O)cc1)C(=O)N[C@@H](CCC(=O)O)C(=O)O)[C@@H](C)O)C(C)C)C(=O)O` [Compound 2], the values for the Emax in data set [1] and in data set [2] were 104% and 100%, respectively. Also, the pEC50 in data set [1] and in data set [2] was 9.00 to 10.00 throughout. In addition, the half-life in data set [3] (Mouse PK (S.C. half-life)) was above 6 h; in data set [3] (half-life in mice) it was above 6 h; in data set [4] (Monkey PK (S.C. half-life)), 12 to 18 h; in data set [4] (monkey PK half-life), above 12 h.

In the case of `CCCCCCCCCCCCCCCCCC(=O)N[C@@H](CCC(=O)NCCOCCOCC(=O)NCCOCCOCC(=O)NCCCC[C@H](NC(=O)[C@H](CC(=O)O)NC(=O)[C@H](CO)NC(=O)[C@@H](NC(=O)[C@H](Cc1ccccc1)NC(=O)[C@@H](NC(=O)CNC(=O)[C@H](CCC(N)=O)NC(=O)C(C)(C)NC(=O)[C@@H](N)Cc1c[nH]cn1)[C@@H](C)O)[C@@H](C)O)C(=O)N[C@@H](CO)C(=O)N[C@@H](CCCCN)C(=O)N[C@@H](Cc1ccc(O)cc1)C(=O)N[C@@H](CC(C)C)C(=O)N[C@@H](CC(=O)O)C(=O)NC(C)(C)C(=O)N[C@@H](CCCNC(=N)N)C(=O)N[C@@H](CCCNC(=N)N)C(=O)N[C@@H](C)C(=O)N[C@@H](CCC(N)=O)C(=O)N[C@@H](CC(=O)O)C(=O)N[C@@H](Cc1ccccc1)C(=O)N[C@H](C(=O)N[C@@H](CCC(N)=O)C(=O)N[C@@H](Cc1c[nH]c2ccccc12)C(=O)N[C@@H](CC(C)C)C(=O)N[C@@H](CCSC)C(=O)N[C@@H](CC(N)=O)C(=O)N[C@H](C(=O)N[C@@H](CCCCN)C(=O)N[C@@H](CCC(=O)O)C(=O)N[C@@H](Cc1ccc(O)cc1)C(=O)N[C@@H](CCC(=O)O)C(=O)N[C@@H](CCCCNC(=O)CCCCCCCCCCCCCCCCC(N)=O)C(=O)N[C@@H](CCC(=O)O)C(=O)N[C@@H](Cc1ccc(O)cc1)C(=O)N[C@@H](CCC(=O)O)C(=O)O)[C@@H](C)O)C(C)C)C(=O)O` [Compound 7], the Emax in data set [1] amounted to 90.8%; in data set [2] it was 100%. The negative-log EC50 (pEC50) in data set [1] and in data set [2] was above 10.00 throughout. In addition, the half-life was above 6 h in data set [3] (Mouse PK (S.C. half-life)), above 6 h in data set [3] (half-life in mice), above 24 h in data set [4] (Monkey PK (S.C. half-life)) and above 24 h in data set [4] (monkey PK half-life).

`CCCCCCCCCCCCCCCCCC(=O)N[C@@H](CCC(=O)NCCOCCOCC(=O)NCCOCCOCC(=O)NCCCC[C@H](NC(=O)[C@H](CC(=O)O)NC(=O)[C@H](CO)NC(=O)[C@@H](NC(=O)[C@H](Cc1ccccc1)NC(=O)[C@@H](NC(=O)CNC(=O)[C@H](CCC(N)=O)NC(=O)C(C)(C)NC(=O)[C@@H](N)Cc1c[nH]cn1)[C@@H](C)O)[C@@H](C)O)C(=O)N[C@@H](CO)C(=O)N[C@@H](CCCCN)C(=O)N[C@@H](Cc1ccc(O)cc1)C(=O)N[C@@H](CC(C)C)C(=O)N[C@@H](CC(=O)O)C(=O)NC(C)(C)C(=O)N[C@@H](CCCNC(=N)N)C(=O)N[C@@H](CCCNC(=N)N)C(=O)N[C@@H](C)C(=O)N[C@@H](CCC(N)=O)C(=O)N[C@@H](CC(=O)O)C(=O)N[C@@H](Cc1ccccc1)C(=O)N[C@H](C(=O)N[C@@H](CCC(N)=O)C(=O)N[C@@H](Cc1c[nH]c2ccccc12)C(=O)N[C@@H](CC(C)C)C(=O)N[C@@H](CCSC)C(=O)N[C@@H](CC(N)=O)C(=O)N[C@H](C(=O)N[C@@H](CCCCN)C(=O)O)[C@@H](C)O)C(C)C)C(=O)O` [Compound 8]: in data set [1], the Emax stood at 99.3% and the negative logarithm of the EC50 (pEC50) is above 10.00. Besides, in data set [2], the Emax amounted to 103% and the negative logarithm of the EC50 (pEC50) was above 10.00. The same compound registered a half-life in data set [3] (Mouse PK (S.C. half-life)) below 6 h.

As to “HSQGTFTSDYSKYLDSRRAQDFVQWLMNTKRNRNNIA (HSQGTFTSDKSKYLDSRRAQDFVQWLMNTKRNRNNIA; listed as Homo sapiens) [oxyntomodulin]”, the “body weight loss on average” value in data set [5] is given as 2.3 kg.
